# Measured values reported in patent publication US20120270819A1, “USE OF COMPOUNDS WITH SGLT-1/SGLT-2 INHIBITOR ACTIVITY FOR PRODUCING MEDICAMENTS FOR TREATMENT OF BONE DISEASE” (SANOFI, priority 2009, published 2012).
# Key:
# [1] = test system: female Sprague-Dawley mature and young adult rats; assay: Biomechanical testing: L3, L4 vertebral compression; format: in vivo, rat; settings: L3 + L4 vertebral bodies, young adults, 50 mg/kg/day
# Experimental: (§1) Biomechanical testing was performed using an 858 Mini Bionix Servohydraulic Test System, Model 242.03. All data was collected using TestWorks® version 3.8A for TestStar™ software, version 4.0C.
# (§2) At necropsy, all specimens were cleaned of excess tissue (not scraped) and individually wrapped in gauze soaked with saline, covered with plastic film and placed in an appropriately labelled plastic bag. Bone samples were retained frozen (ca −20° C.) until subjected to the following biomechanical evaluations:
# For compression testing, the vertebral body of the vertebrae was isolated by removing the vertebral arch and removing both inter-vertebral discs. The section obtained had two parallel cut surfaces and the trabecular bone exposed.
# The L3 and L4 vertebral body were tested in compression to failure. The loading rate was set at 20 mm/min. Load and displacement data were collected and apparent strength and modulus were calculated using the peak load, stiffness, individual vertebral body height and cross sectional area from the pQCT scans. The work to failure was determined from the area under the curve (AUC) and toughness was calculated. Yield load was originally derived using a 0.2% off-set however a 0.1% off-set was considered more appropriate and yield stress was calculated. All data derived from the 0.2% off-set yield load was kept with the study file but not reported.
# [2] = test system: female Sprague-Dawley mature and young adult rats; assay: Biomechanical testing: right femur 3-point bending; format: in vivo, rat; settings: ex vivo; for Femur 3-point bending AUC / Femur 3-point bending Modulus / Femur 3-point bending Peak Load / Femur 3-point bending Stiffness / Femur 3-point bending Toughness / Femur 3-point bending Ultimate Stress: mean
# Experimental: as §1, §2
# For 3-point bending, the right femur was cleaned of soft tissue, especially at the diaphysis in the area of the span.
# The right femur was tested to failure in three-point bending to determine the material properties of femoral cortical bone. The marked point on the anterior side served as the upper loading point for each femur and the actuator was set at a rate of 1 mm/sec until failure occurred. Load and displacement data were collected. Peak load was determined from the resulting load versus displacement curve and converted to ultimate stress using the radius, cross-sectional moment of inertia and the span. The work to failure was determined from the area under the curve (AUC) and toughness was calculated. Approximate midspan values for stiffness were recorded (defined as the slope of the linear/elastic region of the load versus displacement curve) and modulus was calculated using the moment of inertia obtained from the pQCT data.
smiles,measurement,setting,value
COc1ccc(Cc2c(OC3OC(CO)C(F)C(O)C3O)n[nH]c2C(F)(F)F)cc1 (stereo not drawn) [Example 5 of formula II],"Yield Stress, percent difference from Vehicle Control",[1],15.8%
same,AUC (work to failure),[1]; mean,16.3 N-mm
same,Apparent Strength,[1]; mean,38.7 MPa
same,Modulus,[1]; mean,1613.3 MPa
same,Peak Load,[1]; mean,268.0 N
same,Stiffness,[1]; mean,3951.0 N/mm
same,Toughness,[1]; mean,0.9 MPa
same,Yield Load,[1]; mean,225.4 N
same,Yield Stress,[1]; mean,32.7 MPa
same,"Femur 3-point bending AUC, percent difference from Vehicle Control","[2]; Mature Adults, 10 mg/kg/day",13.4%
same,"Femur 3-point bending Modulus, percent difference from Vehicle Control","[2]; Mature Adults, 10 mg/kg/day",−0.2%
same,"Femur 3-point bending Peak Load, percent difference from Vehicle Control","[2]; Mature Adults, 10 mg/kg/day",10.1%
same,"Femur 3-point bending Stiffness, percent difference from Vehicle Control","[2]; Mature Adults, 10 mg/kg/day",1.3%
same,"Femur 3-point bending Toughness, percent difference from Vehicle Control","[2]; Mature Adults, 10 mg/kg/day",10.5%
same,"Femur 3-point bending Ultimate Stress, percent difference from Vehicle Control","[2]; Mature Adults, 10 mg/kg/day",6.1%
same,Femur 3-point bending AUC,"[2]; Mature Adults, 10 mg/kg/day",64.1 N-mm
same,Femur 3-point bending Modulus,"[2]; Mature Adults, 10 mg/kg/day",6137.7 MPa
same,Femur 3-point bending Peak Load,"[2]; Mature Adults, 10 mg/kg/day",149.8 N
same,Femur 3-point bending Stiffness,"[2]; Mature Adults, 10 mg/kg/day",410.2 N/mm
same,Femur 3-point bending Toughness,"[2]; Mature Adults, 10 mg/kg/day",7.8 MPa
same,Femur 3-point bending Ultimate Stress,"[2]; Mature Adults, 10 mg/kg/day",200.5 MPa
same,"Femur 3-point bending AUC, percent difference from Vehicle Control","[2]; Mature Adults, 50 mg/kg/day",8.7%
same,"Femur 3-point bending Modulus, percent difference from Vehicle Control","[2]; Mature Adults, 50 mg/kg/day",1.2%
same,"Femur 3-point bending Peak Load, percent difference from Vehicle Control","[2]; Mature Adults, 50 mg/kg/day",4.5%
same,"Femur 3-point bending Stiffness, percent difference from Vehicle Control","[2]; Mature Adults, 50 mg/kg/day",−0.9%
same,"Femur 3-point bending Toughness, percent difference from Vehicle Control","[2]; Mature Adults, 50 mg/kg/day",6.6%
same,"Femur 3-point bending Ultimate Stress, percent difference from Vehicle Control","[2]; Mature Adults, 50 mg/kg/day",3.4%
same,Femur 3-point bending AUC,"[2]; Mature Adults, 50 mg/kg/day",61.4 N-mm
same,Femur 3-point bending Modulus,"[2]; Mature Adults, 50 mg/kg/day",6222.5 MPa
same,Femur 3-point bending Peak Load,"[2]; Mature Adults, 50 mg/kg/day",142.1 N
same,Femur 3-point bending Stiffness,"[2]; Mature Adults, 50 mg/kg/day",401.4 N/mm
same,Femur 3-point bending Toughness,"[2]; Mature Adults, 50 mg/kg/day",7.5 MPa
same,Femur 3-point bending Ultimate Stress,"[2]; Mature Adults, 50 mg/kg/day",195.4 MPa
same,"Femur 3-point bending AUC, percent difference from Vehicle Control","[2]; Young Adults, 10 mg/kg/day",4.1%
same,"Femur 3-point bending Modulus, percent difference from Vehicle Control","[2]; Young Adults, 10 mg/kg/day",2.1%
same,"Femur 3-point bending Peak Load, percent difference from Vehicle Control","[2]; Young Adults, 10 mg/kg/day",0.9%
same,"Femur 3-point bending Stiffness, percent difference from Vehicle Control","[2]; Young Adults, 10 mg/kg/day",−0.4%
same,"Femur 3-point bending Toughness, percent difference from Vehicle Control","[2]; Young Adults, 10 mg/kg/day",2.5%
same,"Femur 3-point bending Ultimate Stress, percent difference from Vehicle Control","[2]; Young Adults, 10 mg/kg/day",1.3%
same,Femur 3-point bending AUC,"[2]; Young Adults, 10 mg/kg/day",63.7 N-mm
same,Femur 3-point bending Modulus,"[2]; Young Adults, 10 mg/kg/day",5154.1 MPa
same,Femur 3-point bending Peak Load,"[2]; Young Adults, 10 mg/kg/day",97.9 N
same,Femur 3-point bending Stiffness,"[2]; Young Adults, 10 mg/kg/day",277.3 N/mm
same,Femur 3-point bending Toughness,"[2]; Young Adults, 10 mg/kg/day",8.7 MPa
same,Femur 3-point bending Ultimate Stress,"[2]; Young Adults, 10 mg/kg/day",155.8 MPa
same,"Femur 3-point bending AUC, percent difference from Vehicle Control","[2]; Young Adults, 50 mg/kg/day",−19.9%
same,"Femur 3-point bending Modulus, percent difference from Vehicle Control","[2]; Young Adults, 50 mg/kg/day",4.0%
same,"Femur 3-point bending Peak Load, percent difference from Vehicle Control","[2]; Young Adults, 50 mg/kg/day",−3.0%
same,"Femur 3-point bending Stiffness, percent difference from Vehicle Control","[2]; Young Adults, 50 mg/kg/day",2.0%
same,"Femur 3-point bending Toughness, percent difference from Vehicle Control","[2]; Young Adults, 50 mg/kg/day",−19.2%
same,"Femur 3-point bending Ultimate Stress, percent difference from Vehicle Control","[2]; Young Adults, 50 mg/kg/day",−2.3%
same,Femur 3-point bending AUC,"[2]; Young Adults, 50 mg/kg/day",49.0 N-mm
same,Femur 3-point bending Modulus,"[2]; Young Adults, 50 mg/kg/day",5249.6 MPa
same,Femur 3-point bending Peak Load,"[2]; Young Adults, 50 mg/kg/day",94.1 N
same,Femur 3-point bending Stiffness,"[2]; Young Adults, 50 mg/kg/day",283.9 N/mm
same,Femur 3-point bending Toughness,"[2]; Young Adults, 50 mg/kg/day",6.8 MPa
same,Femur 3-point bending Ultimate Stress,"[2]; Young Adults, 50 mg/kg/day",150.2 MPa
